The values below come from patent US9708334B2, “Substituted 2,4,5,6-tetrahydropyrrolo[3,4-c]pyrazole and 4,5,6,7-tetrahydro-2H-pyrazolo[4,3-c]pyridine compounds as GlyT1 inhibitors” (DART NEUROSCIENCE (CAYMAN) LTD., priority 2014, dated 2017).

The experiment deals with T1, GlyT1 (Homo sapiens, UniProt P48067).
T1 construct: expressed in transfected cells
T1 sequence (P48067 1-706): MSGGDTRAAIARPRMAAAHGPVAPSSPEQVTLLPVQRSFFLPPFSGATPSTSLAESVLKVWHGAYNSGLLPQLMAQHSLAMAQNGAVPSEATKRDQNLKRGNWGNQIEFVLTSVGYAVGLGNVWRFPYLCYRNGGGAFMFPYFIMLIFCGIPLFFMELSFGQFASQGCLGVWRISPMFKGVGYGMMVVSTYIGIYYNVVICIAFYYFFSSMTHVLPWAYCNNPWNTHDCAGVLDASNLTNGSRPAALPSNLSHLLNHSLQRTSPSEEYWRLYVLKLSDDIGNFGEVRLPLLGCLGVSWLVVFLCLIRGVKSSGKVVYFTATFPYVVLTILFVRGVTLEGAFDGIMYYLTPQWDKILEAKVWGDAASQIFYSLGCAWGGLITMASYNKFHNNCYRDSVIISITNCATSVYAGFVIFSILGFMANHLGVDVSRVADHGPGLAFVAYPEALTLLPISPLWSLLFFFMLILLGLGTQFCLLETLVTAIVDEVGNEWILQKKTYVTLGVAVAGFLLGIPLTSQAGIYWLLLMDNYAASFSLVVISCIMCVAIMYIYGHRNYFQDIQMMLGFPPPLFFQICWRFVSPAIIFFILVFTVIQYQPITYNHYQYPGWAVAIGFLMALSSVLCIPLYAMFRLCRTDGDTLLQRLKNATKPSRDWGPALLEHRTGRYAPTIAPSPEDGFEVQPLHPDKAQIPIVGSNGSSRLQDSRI
Kind of experiment: Glycine Transporter 1 (GlyT1) uptake assay, scintillation proximity assay of [14C]-glycine uptake. In kind it is cell-based. The settings on record: SPA, four parameter logistic fit, read-out: GlyT1 (pIC50) (converted). Put shortly: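 IC50 values derive from four-parameter logistic curves fitted to dose-response data. Uptake of [14C]-glycine measured in scintillation proximity format.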
In general terms: Scintillation proximity formats need no separation of bound from free tracer.
For `CC(C)S(=O)(=O)c1ccc(O[C@@H](C)C(F)(F)F)c(C(=O)N2Cc3cn(-c4ccc(F)c(F)c4)nc3C2)c1` [Example 92, 2-(3 4-Difluorophenyl)-5-[5-(propane-2-sulfonyl)-2-{[(2S)-1 1 1-trifluoropropan-2-yl]oxy}benzoyl]-2H 4H 5H 6H-pyrrolo[3,4-c]pyrazole], the IC50 was 100 to 1000 nM. Take `COc1c(C#N)ccc(O[C@@H](C)C(F)(F)F)c1C(=O)N1Cc2cn(-c3ccnc(C)c3)nc2C1` [Example 18, 2-Methoxy-3-[2-(2-methylpyridin-4-yl)-2H 4H 5H 6H-pyrrolo[3,4-c]pyrazole-5-carbonyl]-4-{[(2S)-1 1 1-trifluoropropan-2-yl]oxy}benzonitrile]: the IC50 was less than 100 nM. Take `COc1c(C#N)ccc(OC(C)C(F)(F)F)c1C(=O)N1CCc2c(c(C(F)(F)F)nn2-c2ccc(F)cc2)C1` (centres unmarked) [Example 577, 3-[1-(4-Fluorophenyl)-3-(trifluoromethyl)-1H 4H 5H 6H 7H-pyrazolo[4,3-c]pyridine-5-carbonyl]-2-methoxy-4-[(1 1 1-trifluoropropan-2-yl)oxy]benzonitrile]: the IC50 was 100 to 1000 nM. As for `C[C@H](Oc1ccc(C#N)cc1C(=O)N1Cc2cn(CC3CCCC3)nc2C1)C(F)(F)F` [Example 414, 3-[2-(Cyclopentylmethyl)-2H 4H 5H 6H-pyrrolo[3,4-c]pyrazole-5-carbonyl]-4-{[(2S)-1 1 1-trifluoropropan-2-yl]oxy}benzonitrile], the figure is 100 to 1000 nM; as for `CS(=O)(=O)c1ccc(N2CCC(F)(F)CC2)c(C(=O)N2Cc3cn(-c4cccc(C(F)(F)F)c4)nc3C2)c1` [Example 55, 4 4-Difluoro-1-(4-methanesulfonyl-2-{2-[3-(trifluoromethyl)phenyl]-2H 4H 5H 6H-pyrrolo[3,4-e]pyrazole-5-carbonyl}phenyl)piperidine], less than 100 nM.

In the case of `COc1c(C#N)ccc(OC(C)C(F)(F)F)c1C(=O)N1CCc2c(cnn2-c2cccnc2)C1` (centres unmarked) [Example 218, 2-Methoxy-3-[1-(pyridin-3-yl)-1H 4H 5H 6H 7H-pyrazolo[4,3-c]pyridine-5-carbonyl]-4-[(1 1 1-trifluoropropan-2-yl)oxy]benzonitrile], the IC50 was less than 100 nM. Consider `COc1cc(-n2ncc3c2CN(C(=O)c2cc(C#N)ccc2O[C@@H](C)C(F)(F)F)C3)ccn1` [Example 365, 3-[1-(2-Methoxypyridin-4-yl)-1H 4H 5H 6H-pyrrolo[3,4-c]pyrazole-5-carbonyl]-4-{[(2S)-1 1 1-trifluoropropan-2-yl]oxy}benzonitrile], for which the IC50 is 1000 to 10000 nM. As for `CCc1cc(-n2cc3c(n2)CN(C(=O)c2cc(S(C)(=O)=O)ccc2N2CCC(F)(F)CC2)C3)ccn1` [Example 131, 4-{5-[2-(4 4-Difluoropiperidin-1-yl)-5-methanesulfonylbenzoyl]-2H 4H 5H 6H-pyrrolo[3,4-c]pyrazol-2-yl}-2-ethylpyridine], the figure is less than 100 nM; as for `C[C@H](Oc1ccc(C#N)cc1C(=O)N1Cc2cn(CC(C)(C)F)nc2C1)C(F)(F)F` [Example 378, 3-[2-(2-Fluoro-2-methylpropyl)-2H 4H 5H 6H-pyrrolo[3,4-c]pyrazole-5-carbonyl]-4-{[(2S)-1 1 1-trifluoropropan-2-yl]oxy}benzonitrile], 100 to 1000 nM. To `Cc1cccc(-n2cc3c(n2)CN(C(=O)c2cc(S(C)(=O)=O)ccc2O[C@@H](C)C(F)(F)F)C3)n1` [Example 360, 2-[5-(5-Methanesulfonyl-2-{[(2S)-1 1 1-trifluoropropan-2-yl]oxy}benzoyl)-2H 4H 5H 6H-pyrrolo[3,4-c]pyrazol-2-yl]-6-methylpyridine] belongs less than 100 nM; to `C[C@H](Oc1ccc(C#N)c(Cl)c1C(=O)N1Cc2cn(-c3ncccc3F)nc2C1)C(F)(F)F` [Example 262, 2-Chloro-3-[2-(3-fluoropyridin-2-yl)-2H 4H 5H 6H-pyrrolo[3,4-c]pyrazole-5-carbonyl]-4-{[(2S)-1 1 1-trifluoropropan-2-yl]oxy}benzonitrile], less than 100 nM; to `CC(C)Cn1ncc2c1CN(C(=O)c1cc(C#N)ccc1O[C@@H](C)C(F)(F)F)C2` [Example 387, 3-[1-(2-Methylpropyl)-1H 4H 5H 6H-pyrrolo[3,4-c]pyrazole-5-carbonyl]-4-{[(2S)-1 1 1-trifluoropropan-2-yl]oxy}benzonitrile], greater than 10000 nM. Regarding `N#Cc1ccc(-c2cncc(F)c2)c(C(=O)N2Cc3cn(-c4cncc(F)c4)nc3C2)c1` [Example 552, 4-(5-Fluoropyridin-3-yl)-3-[2-(5-fluoropyridin-3-yl)-2H 4H 5H 6H-pyrrolo[3,4-c]pyrazole-5-carbonyl]benzonitrile], the IC50 is 100 to 1000 nM. As for `COc1c(C#N)ccc(OCC(C)(C)C)c1C(=O)N1Cc2cn(-c3ccc(F)cn3)nc2C1` [Example 320, 4-(2 2-Dimethylpropoxy)-3-[2-(5-fluoropyridin-2-yl)-2H 4H 5H 6H-pyrrolo[3,4-c]pyrazole-5-carbonyl]-2-methoxybenzonitrile], the figure is less than 100 nM. To `CC(C)Oc1ccc(S(=O)(=O)C(C)C)cc1C(=O)N1Cc2cn(-c3ccc(F)c(F)c3)nc2C1` [Example 99, 2-(3 4-Difluorophenyl)-5-[2-(propan-2-yloxy)-5-(propane-2-sulfonyl)benzoyl]-2H 4H 5H 6H-pyrrolo[3,4-c]pyrazole] belongs 100 to 1000 nM; to `C[C@H](Oc1ccc(S(C)(=O)=O)cc1C(=O)N1Cc2cnn(-c3cccc4nccn34)c2C1)C(F)(F)F` [Example 446, 1-{Imidazo[1 2-a]pyridin-5-yl}-5-(5-methanesulfonyl-2-{[(2S)-1 1 1-trifluoropropan-2-yl]oxy}benzoyl)-1H 4H 5H 6H-pyrrolo[3,4-c]pyrazole], less than 100 nM. As for `Cc1cccc(-n2cc3c(n2)CN(C(=O)c2cc(S(C)(=O)=O)ccc2OCC2(C)COC2)C3)c1F` [Example 441, 2-(2-Fluoro-3-methylphenyl)-5-{5-methanesulfonyl-2-[(3-methyloxetan-3-yl)methoxy]benzoyl}-2H 4H 5H 6H-pyrrolo[3,4-c]pyrazole], the figure is 100 to 1000 nM.

With `CC(Oc1ccc(C#N)c(Cl)c1C(=O)N1CCc2nn(-c3cncc(F)c3)cc2C1)C(F)(F)F` (centres unmarked) [Example 153, 2-Chloro-3-[2-(5-fluoropyridin-3-yl)-2H 4H 5H 6H 7H-pyrazolo[4,3-c]pyridine-5-carbonyl]-4-[(1 1 1-trifluoropropan-2-yl)oxy]benzonitrile], the IC50 is less than 100 nM. To `COc1c(C#N)ccc(OCC(C)C)c1C(=O)N1Cc2cn(-c3ccc(F)cc3)nc2C1` [Example 522, 3-[2-(4-Fluorophenyl)-2H 4H 5H 6H-pyrrolo[3,4-c]pyrazole-5-carbonyl]-2-methoxy-4-(2-methylpropoxy)benzonitrile] belongs less than 100 nM. On to `COc1c(C#N)ccc(C2(F)CCC(F)(F)CC2)c1C(=O)N1CCc2nn(-c3ccc(F)cn3)cc2C1` [Example 12, 3-[2-(5-Fluoropyridin-2-yl)-2H 4H 5H 6H 7H-pyrazolo[4,3-c]pyridine-5-carbonyl]-2-methoxy-4-(1 4 4-trifluorocyclohexyl)benzonitrile], for which the IC50 is 100 to 1000 nM. To `COc1c(C#N)ccc(OCC(F)(F)F)c1C(=O)N1CCc2nn(-c3ccncc3)cc2C1` [Example 156, 2-Methoxy-3-[2-(pyridin-4-yl)-2H 4H 5H 6H 7H-pyrazolo[4,3-c]pyridine-5-carbonyl]-4-(2 2 2-trifluoroethoxy)benzonitrile] belongs less than 100 nM; to `CC1(COc2ccc(S(C)(=O)=O)cc2C(=O)N2Cc3cn(-c4ccccc4F)nc3C2)COC1` [Example 436, 2-(2-Fluorophenyl)-5-{5-methanesulfonyl-2-[(3-methyloxetan-3-yl)methoxy]benzoyl}-2H 4H 5H 6H-pyrrolo[3,4-c]pyrazole], 100 to 1000 nM; to `C[C@H](Oc1ccc(C#N)cc1C(=O)N1Cc2cn(CC3CC3)nc2C1)C(F)(F)F` [Example 451, 3-[2-(Cyclopropylmethyl)-2H 4H 5H 6H-pyrrolo[3,4-c]pyrazole-5-carbonyl]-4-{[(2S)-1 1 1-trifluoropropan-2-yl]oxy}benzonitrile], 100 to 1000 nM. Turning to `COc1c(C#N)ccc(OC2COC2)c1C(=O)N1Cc2cn(-c3ccc(F)c(C)n3)nc2C1` [Example 537, 3-[2-(5-Fluoro-6-methylpyridin-2-yl)-2H 4H 5H 6H-pyrrolo[3,4-c]pyrazole-5-carbonyl]-2-methoxy-4-(oxetan-3-yloxy)benzonitrile], the IC50 is 100 to 1000 nM. Take `COc1cccc(-n2cc3c(n2)CN(C(=O)c2c(O[C@@H](C)C(F)(F)F)ccc(C#N)c2OC)C3)n1` [Example 275, 2-Methoxy-3-[2-(6-methoxypyridin-2-yl)-2H 4H 5H 6H-pyrrolo[3,4-c]pyrazole-5-carbonyl]-4-{[(2S)-1 1 1-trifluoropropan-2-yl]oxy}benzonitrile]: the IC50 is less than 100 nM. As for `COCCCn1cc2c(n1)CN(C(=O)c1cc(C#N)ccc1O[C@@H](C)C(F)(F)F)C2` [Example 393, 3-[2-(3-Methoxypropyl)-2H 4H 5H 6H-pyrrolo[3,4-c]pyrazole-5-carbonyl]-4-{[(2S)-1 1 1-trifluoropropan-2-yl]oxy}benzonitrile], the figure is 100 to 1000 nM.
